This note sets out measurements from PubChem BioAssay AID256 (DTP/NCI, 2004).

Structures are written as SMILES. Where “and” joins values, the source holds several entries; their conditions need not be identical. Identical values can stand only once. Inconclusive results and toxic doses are left out.

This test deals with CD2F1 mice, L1210 leukemia ip, survival T/C. The test is described as follows: NCI In Vivo Anticancer Drug Screen. Data for tumor model L1210 Leukemia (intraperitoneal) in CD2F1 (CDF1) mice. The note with it: higher = longer survival. In a few lines: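 Read-out first: treated-group measurement over vehicle-control measurement, expressed as a ratio. Animals bore a transplanted tumor line and were dosed with compound or vehicle.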

[1] abbreviates: endpoint: mean survival time, dose: 100.0 mg/kg/injection, schedule: Q01DX009 (ip), vehicle: saline with Tween-80.
The mark [2] stands for this setting: endpoint: mean survival time, dose: 100.0 mg/kg/injection, schedule: Q04DX003 (ip), vehicle: saline with Tween-80.
Where [3] appears, read: endpoint: mean survival time, dose: 200.0 mg/kg/injection, schedule: Q01DX009 (ip), vehicle: saline with Tween-80.
Where [4] appears, read: endpoint: mean survival time, dose: 200.0 mg/kg/injection, schedule: Q04DX003 (ip), vehicle: saline with Tween-80.
Where [5] appears, read: endpoint: mean survival time, dose: 400.0 mg/kg/injection, schedule: Q04DX003 (ip), vehicle: saline with Tween-80.

In the case of `CS(=O)(=O)OCCBr`, the T/C (endpoint: mean survival time, dose: 50.0 mg/kg/injection, schedule: Q04DX003 (ip), vehicle: saline) is 102 % of control.

As for `CCSC1=[N+](SCC)CCCS1`, the T/C (endpoint: mean survival time, dose: 75.0 mg/kg/injection, schedule: Q01DX001 (ip), vehicle: saline) is 103 % of control.

`Cc1ccc(C(=O)Nc2ccc(S(=O)(=O)O)c3cc(S(=O)(=O)O)cc(S(=O)(=O)O)c23)cc1NC(=O)c1cccc(NC(=O)Nc2cccc(C(=O)Nc3cc(C(=O)Nc4ccc(S(=O)(=O)O)c5cc(S(=O)(=O)O)cc(S(=O)(=O)O)c45)ccc3C)c2)c1`: the T/C reads like this: (endpoint: median survival time, dose: 12.5 mg/kg/injection, schedule: Q01DX005 (ip), vehicle: saline) 101 % of control; (endpoint: median survival time, dose: 25.0 mg/kg/injection, schedule: Q01DX005 (ip), vehicle: saline) 101 % of control; (endpoint: median survival time, dose: 50.0 mg/kg/injection, schedule: Q01DX005 (ip), vehicle: saline) 116 % of control.

On to `NC1CCCCC1N.NC1CCCCC1N.[Cl-].[Cu+]` (stereo not given), for which the T/C was 97 % of control (endpoint: mean survival time, dose: 1.56 mg/kg/injection, schedule: Q04DX002 (ip), vehicle: saline); 97 % of control (endpoint: mean survival time, dose: 3.13 mg/kg/injection, schedule: Q04DX002 (ip), vehicle: saline); 97 % of control (endpoint: mean survival time, dose: 6.25 mg/kg/injection, schedule: Q04DX002 (ip), vehicle: saline).

As for `NP(=O)(Oc1ccc([N+](=O)[O-])cc1)Oc1ccc([N+](=O)[O-])cc1`, the T/C runs as follows: (endpoint: mean survival time, dose: 62.5 mg/kg/injection, schedule: Q01DX001 (ip), vehicle: other) 97 % of control; (endpoint: mean survival time, dose: 125.0 mg/kg/injection, schedule: Q01DX001 (ip), vehicle: other) 93 % of control; (endpoint: mean survival time, dose: 250.0 mg/kg/injection, schedule: Q01DX001 (ip), vehicle: other) 97 % of control; (endpoint: mean survival time, dose: 500.0 mg/kg/injection, schedule: Q01DX001 (ip), vehicle: other) 86 % of control.

For `CC[C@H]1CN2CCc3cc(OC)c(OC)cc3[C@@H]2C[C@@H]1C[C@H]1NCCc2cc(OC)c(OC)cc21`, the T/C is 107 % of control (endpoint: mean survival time, dose: 2.0 mg/kg/injection, schedule: Q01DX007 (ip), vehicle: Klucel (hydroxypropylcellulose) (HPC)); 108 % of control (endpoint: mean survival time, dose: 2.0 mg/kg/injection, schedule: Q01DX009 (ip), vehicle: Klucel (hydroxypropylcellulose) (HPC)); 93 % of control and 102 % of control (endpoint: mean survival time, dose: 2.0 mg/kg/injection, schedule: Q02DX005 (ip), vehicle: saline); 110 % of control (endpoint: mean survival time, dose: 2.0 mg/kg/injection, schedule: Q03DX003 (ip), vehicle: Klucel (hydroxypropylcellulose) (HPC)); 104 % of control (endpoint: mean survival time, dose: 2.0 mg/kg/injection, schedule: Q04DX003 (ip), vehicle: Klucel (hydroxypropylcellulose) (HPC)); 118 % of control (endpoint: mean survival time, dose: 4.0 mg/kg/injection, schedule: Q01DX007 (ip), vehicle: Klucel (hydroxypropylcellulose) (HPC)). In addition, the T/C was 122 % of control (endpoint: mean survival time, dose: 4.0 mg/kg/injection, schedule: Q01DX009 (ip), vehicle: Klucel (hydroxypropylcellulose) (HPC)); 104 % of control (endpoint: mean survival time, dose: 4.0 mg/kg/injection, schedule: Q02DX005 (ip), vehicle: saline); 106 % of control (endpoint: mean survival time, dose: 4.0 mg/kg/injection, schedule: Q03DX003 (ip), vehicle: Klucel (hydroxypropylcellulose) (HPC)); 104 % of control (endpoint: mean survival time, dose: 4.0 mg/kg/injection, schedule: Q04DX003 (ip), vehicle: Klucel (hydroxypropylcellulose) (HPC)); 105 % of control (endpoint: mean survival time, dose: 8.0 mg/kg/injection, schedule: Q01DX007 (ip), vehicle: Klucel (hydroxypropylcellulose) (HPC)); 101 % of control (endpoint: mean survival time, dose: 8.0 mg/kg/injection, schedule: Q01DX009 (ip), vehicle: Klucel (hydroxypropylcellulose) (HPC)). Moreover, the T/C (endpoint: mean survival time, dose: 8.0 mg/kg/injection, schedule: Q03DX003 (ip), vehicle: Klucel (hydroxypropylcellulose) (HPC)) is 110 % of control; the T/C (endpoint: mean survival time, dose: 8.0 mg/kg/injection, schedule: Q04DX003 (ip), vehicle: Klucel (hydroxypropylcellulose) (HPC)) is 110 % of control; the T/C (endpoint: mean survival time, dose: 25.0 mg/kg/injection, schedule: Q04DX003 (ip), vehicle: saline with Tween-80) was 164 % of control and 195 % of control; the T/C (endpoint: mean survival time, dose: 30.0 mg/kg/injection, schedule: Q04DX003 (ip), vehicle: saline with Tween-80) was 124 % of control; the T/C (endpoint: mean survival time, dose: 40.0 mg/kg/injection, schedule: Q04DX003 (ip), vehicle: saline with Tween-80) is 95 % of control.

Regarding `OC(Cc1ccccn1)C(Cl)(Cl)Cl` (stereo not given), the T/C by setting is: (endpoint: mean survival time, dose: 50.0 mg/kg/injection, schedule: Q04DX002 (ip), vehicle: saline) 97 % of control; under setting [1], 102 % of control; (endpoint: mean survival time, dose: 100.0 mg/kg/injection, schedule: Q04DX002 (ip), vehicle: saline) 114 % of control; under setting [2], 95 % of control; under setting [3], 112 % of control; (endpoint: mean survival time, dose: 200.0 mg/kg/injection, schedule: Q04DX002 (ip), vehicle: saline) 94 % of control. For the same molecule, the T/C is 111 % of control under setting [4]; 98 % of control (endpoint: mean survival time, dose: 400.0 mg/kg/injection, schedule: Q01DX009 (ip), vehicle: saline with Tween-80); 103 % of control under setting [5].

Take `O=C(O)CCC(=O)CCC(=O)c1ccc2ccccc2c1`: the T/C is, setting by setting: (endpoint: mean survival time, dose: 100.0 mg/kg/injection, schedule: Q01DX001 (ip), vehicle: saline) 98 % of control; (endpoint: mean survival time, dose: 200.0 mg/kg/injection, schedule: Q01DX001 (ip), vehicle: saline) 98 % of control; (endpoint: mean survival time, dose: 400.0 mg/kg/injection, schedule: Q01DX001 (ip), vehicle: saline) 95 % of control.

`CCCCC(O)(c1ccccc1)C1CN(C(C)(C)C)C1c1ccccc1` (stereo not given): the T/C (endpoint: mean survival time, dose: 25.0 mg/kg/injection, schedule: Q01DX001 (ip), vehicle: saline with Tween-80) was 95 % of control; the T/C (endpoint: mean survival time, dose: 50.0 mg/kg/injection, schedule: Q01DX001 (ip), vehicle: saline with Tween-80) is 91 % of control; the T/C (endpoint: mean survival time, dose: 100.0 mg/kg/injection, schedule: Q01DX001 (ip), vehicle: saline with Tween-80) was 86 % of control.

Turning to `O=C(N/N=C/c1ccc(Cl)cc1Cl)c1ccccc1`, the T/C is, setting by setting: (endpoint: mean survival time, dose: 50.0 mg/kg/injection, schedule: Q01DX009 (ip), vehicle: Klucel (hydroxypropylcellulose) (HPC)) 110 % of control; (endpoint: mean survival time, dose: 100.0 mg/kg/injection, schedule: Q01DX009 (ip), vehicle: Klucel (hydroxypropylcellulose) (HPC)) 103 % of control; (endpoint: mean survival time, dose: 200.0 mg/kg/injection, schedule: Q01DX009 (ip), vehicle: Klucel (hydroxypropylcellulose) (HPC)) 86 % of control.

Take `O=C1CCC2(c3ccccc3)C1C2c1ccccc1` (stereo not given): the T/C is 110 % of control under setting [2], 112 % of control under setting [4] and 101 % of control under setting [5].

On to `Cc1ccc([N+](=O)[O-])cc1NC(=O)SCCOC(=O)COc1ccc(Cl)cc1`, for which the T/C is 98 % of control under setting [2], 96 % of control under setting [4] and 98 % of control under setting [5].

Turning to `CC(=O)OC(N=Nc1ccccc1)(c1ccccc1)c1ccccc1`, the T/C runs as follows: under setting [2], 98 % of control; under setting [4], 92 % of control; under setting [5], 93 % of control.

For `Cc1cc(Cc2cc(C)c(O)c(C)c2)cc(C)c1O`, the T/C by setting is: (endpoint: mean survival time, dose: 50.0 mg/kg/injection, schedule: Q01DX009 (ip), vehicle: saline with Tween-80) 94 % of control; under setting [1], 100 % of control; under setting [3], 97 % of control.

On to `C/C=C/c1cnc(N)nc1-c1ccccc1`, for which the T/C by setting is: (endpoint: mean survival time, dose: 100.0 mg/kg/injection, schedule: Q04DX002 (ip), vehicle: saline with Tween-80) 101 % of control; (endpoint: mean survival time, dose: 200.0 mg/kg/injection, schedule: Q04DX002 (ip), vehicle: saline with Tween-80) 96 % of control; (endpoint: mean survival time, dose: 400.0 mg/kg/injection, schedule: Q04DX002 (ip), vehicle: saline with Tween-80) 96 % of control.

As for `C=C1CC[C@]2(C)CC[C@]3(C)C4=CC=C5C(=CC(=O)C(O)=C5C)[C@]4(C)CC[C@@]3(C)[C@@H]2C1`, the T/C is 103 % of control (endpoint: mean survival time, dose: 0.12 mg/kg/injection, schedule: Q01DX009 (ip), vehicle: saline with Tween-80); 102 % of control (endpoint: mean survival time, dose: 0.25 mg/kg/injection, schedule: Q01DX009 (ip), vehicle: saline with Tween-80); 108 % of control (endpoint: mean survival time, dose: 0.5 mg/kg/injection, schedule: Q01DX009 (ip), vehicle: saline with Tween-80); 86 % of control (endpoint: mean survival time, dose: 1.0 mg/kg/injection, schedule: Q01DX009 (ip), vehicle: saline with Tween-80).

As to `CC(=O)Oc1cc([N+](=O)[O-])ccc1C(=O)O`, the T/C was 102 % of control under setting [1] and 102 % of control under setting [3].

Consider `O=C1C2C3CC4C2C(Br)C2C1C3C42` (stereo not given), for which the T/C is 104 % of control (endpoint: mean survival time, dose: 25.0 mg/kg/injection, schedule: Q04DX002 (ip), vehicle: saline with Tween-80) and 100 % of control (endpoint: mean survival time, dose: 50.0 mg/kg/injection, schedule: Q04DX002 (ip), vehicle: saline with Tween-80).
